Data on 10 molecules can be found in patent publication US20260008793A1, “IONIZABLE CATIONIC LIPIDS INCORPORATING SILICON” (ALDEXCHEM KFT., priority 2022, published 2026).

The nature of data set [1]: LNP size, PDI and zeta potential by Dynamic Light Scattering (Method A). It counts as physicochemical. The settings on record: LNP formulated by Method A; for Zeta potential (mV): 1xPBS pH 7.4; for PDI / Size (nm): DLS; for Size (nm): Luciferase-mRNA loaded. The method, boiled down: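 Dynamic light scattering gave particle size, PDI and zeta potential of the LNPs. These were made by microfluidic mixing, 3:1 aqueous to ethanol, of mRNA in 10 mM citrate pH 4.0 with a lipid master mix carrying the ionizable lipid, then dialysed through 100 kDa MWCO tubing.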

In a further data set the test system is HeLa cells. Nature of the data set: Transfection efficiency with Luciferase-mRNA, Nano-Glo assay (Method A). Further: unit not given here. It is filed as cell-based. The settings on record: 100 ng Luciferase (SecNLuc) mRNA, 24 h, luminescence. The method, boiled down:
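Luminescence of secreted NanoLuc in culture medium, read ~3 min after Nano-Glo reagent, reports transfection. HeLa cells grown to ~80% confluence got 100/50/10 ng mRNA per well as LNPs for 24 h, with a parallel resazurin toxicity readout.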

As for `CCCCCCCCCOC(CCCCCCC)O[Si](C)(C)OCCCCCCN(CCCCO)CCCCCCOC(=O)C(CCCCCC)CCCCCCCC` (stereo not shown) [Example 141, 17-heptyl-7-(4-hydroxybutyl)-15,15-dimethyl-14,16,18-trioxa-7-aza-15-silaheptacosyl 2-hexyldecanoate], in data set [1], the “Zeta potential (mV)” value was −10.6 mV, the PDI amounted to 0.11 and the “Size (nm)” value is on record as 129.5 nm. In the data set with HeLa cells, the “Transfection* (Method A = 100 ng mRNA)” value came to 4651434.

`CCCCCCCCCCSC(CCCC)C(=O)OCCCCCCN(CCCCO)CCCCCC(OCCCCCCCC)O[Si](C)(C)O[Si](C)(C)CCCCCCCC` (stereo not shown) [Example 170, 6-((4-hydroxybutyl)(6-(octyloxy)-6-((1,1,3,3-tetramethyl-3-octyldisiloxaneyl)oxy)hexyl)amino)hexyl 2-(decylthio)hexanoate]: in data set [1], the “Zeta potential (mV)” value is −14.68 mV, the PDI was found to be 0.210 and the “Size (nm)” value is listed as 207.5 nm. Further, the “Transfection* (Method A = 100 ng mRNA)” value in the data set on HeLa cells came out at 711747.

Turning to `CCCCCCCCOC(CCCCCN(CCCCO)CCCCCCOC(=O)C(CCCCCCCC)SCCCCC)O[Si](C)(C)O[Si](C)(C)CCCCCCCC` (stereo not shown) [Example 181, 6-((4-hydroxybutyl)(6-(octyloxy)-6-((1,1,3,3-tetramethyl-3-octyldisiloxaneyl)oxy)hexyl)amino)hexyl 2-(pentylthio)decanoate], in data set [1], the “Zeta potential (mV)” value is on record as −14.73 mV, the PDI came to 0.049 and the “Size (nm)” value was found to be 188.6 nm. Also, the “Transfection* (Method A = 100 ng mRNA)” value with HeLa cells is recorded as 14238.

As for `CCCCCCCC[Si](C)(C)O[Si](C)(C)OC(CCCCCCC)OCCCCCCN(CCCCO)CCC[C@@H](C)C1CCC2C3CCC4C[C@H](OC)CC[C@]4(C)C3CC[C@@]21C` (stereo partly drawn) [Example 219, 13-heptyl-5-((4R)-4-((3R,10S,13R)-3-methoxy-10,13-dimethylhexadecahydro-1H-cyclopenta[a]phenanthren-17-yl)pentyl)-15,15,17,17-tetramethyl-12,14,16-trioxa-5-aza-15,17-disilapentacosan-1-ol], in data set [1], the “Zeta potential (mV)” value is given as −16.69 mV, the PDI was 0.076 and the “Size (nm)” value is given as 139.4 nm. Besides, in the data set on HeLa cells, the “Transfection* (Method A = 100 ng mRNA)” value stood at 531876.

In the case of `CC/C=C\C/C=C\C/C=C\C/C=C\C/C=C\CCCCN(CCCCO)CCCCCC(OCCCCCCCC)O[Si](C)(C)O[Si](C)(C)CCCCCCCC` (stereo not shown) [Example 198, 4-(((5Z,8Z,11Z,14Z,17Z)-icosa-5,8,11,14,17-pentaen-1-yl)(6-(octyloxy)-6-((1,1,3,3-tetramethyl-3-octyldisiloxaneyl)oxy)hexyl)amino)butan-1-ol], in data set [1], the “Zeta potential (mV)” value is listed as −13.07 mV, the PDI came out at 0.004 and the “Size (nm)” value amounted to 158 nm. Moreover, the “Transfection* (Method A = 100 ng mRNA)” value in the data set with HeLa cells is 53096.

Regarding `CCCCCCCCCCCOC(=O)CCCCCN(CCO)CCCCCCCCCOC(CCCCCCC)O[Si](C)(C)CCCCCC` (stereo not shown) [Example 209, undecyl 9-heptyl-20-(2-hydroxyethyl)-7,7-dimethyl-8,10-dioxa-20-aza-7-silahexacosan-26-oate], in data set [1], the “Zeta potential (mV)” value is −12.11 mV, the PDI came to 0.018 and the “Size (nm)” value is reported as 161.6 nm. The “Transfection* (Method A = 100 ng mRNA)” value in the data set on HeLa cells is on record as 2049133.

As to `CCCCCCCCSC(CCCCCCC)O[Si](C)(C)OCCCCCCN(CCCCO)CCCCCCOC(=O)C(CCCCCC)CCCCCCCC` (stereo not shown) [Example 147, 17-heptyl-7-(4-hydroxybutyl)-15,15-dimethyl-14,16-dioxa-18-thia-7-aza-15-silahexacosyl 2-hexyldecanoate], in data set [1], the “Zeta potential (mV)” value was −7.5 mV, the PDI stood at 0.14 and the “Size (nm)” value stood at 146.8 nm. The “Transfection* (Method A = 100 ng mRNA)” value with HeLa cells came to 4302243.

As to `CCCCCCCCCCSC(CCCC)C(=O)OCCCCCCN(CCCCO)CCCCCC(OCCCCCCCC)O[Si](C)(C)OCCCCCCCC` (stereo not shown) [Example 168, 7-(4-hydroxybutyl)-15,15-dimethyl-13-(octyloxy)-14,16-dioxa-7-aza-15-silatetracosyl 2-(decylthio)hexanoate], in data set [1], the “Zeta potential (mV)” value was −11.79 mV, the PDI is reported as 0.085 and the “Size (nm)” value came to 224.2 nm. For the same molecule, the “Transfection* (Method A = 100 ng mRNA)” value with HeLa cells is on record as 74333.

In the case of `CCCCCCCCCCSC(CCCC)C(=O)OCCCCCCN(CCCCO)CCCCCC(OCCCCCCCC)O[Si](C)(C)CCCCCCCC` (stereo not shown) [Example 166, 6-((6-((dimethyl(octyl)silyl)oxy)-6-(octyloxy)hexyl)(4-hydroxybutyl)amino)hexyl 2-(decylthio)hexanoate], in data set [1], the “Zeta potential (mV)” value is on record as −13.01 mV, the PDI was 0.185 and the “Size (nm)” value worked out at 223.6 nm. Besides, the “Transfection* (Method A = 100 ng mRNA)” value in the data set with HeLa cells was 791474.

With `CCCCCCCCCCSC(CCCC)C(=O)OCCCCCCN(CCCCO)CCCCCCOC(CCCCCCC)O[Si](C)(C)OCC(CCCCCC)CCCCCCCC` (stereo not shown) [Example 175, 15-heptyl-20-hexyl-7-(4-hydroxybutyl)-17,17-dimethyl-14,16,18-trioxa-7-aza-17-silaoctacosyl 2-(decylthio)hexanoate], in data set [1], the “Zeta potential (mV)” value is reported as −11.78 mV, the PDI is reported as 0.068 and the “Size (nm)” value is 161.2 nm. Besides, the “Transfection* (Method A = 100 ng mRNA)” value in the data set with HeLa cells was found to be 119238.5.
